Source: patent US20230321053A1, “(1R,3S)-3-((5-CYANO-4-PHENYLTHIAZOL-2-YL)CARBAMOYL)CYCLOPENTANE-1-CARBOXYLIC ACID AND DERIVATIVES THEREOF FOR USE IN THE TREATMENT OF AIRWAY DISEASES” (PALOBIOFARMA, S.L., priority 2020, published 2023)

Experiments:
[1] = test system: patients with mild-to-moderate persistent atopic asthma; assay: Peripheral blood eosinophil count, phase II placebo-controlled study; type: in vivo, human; details: 10 mg once daily
Source text: Eosinophil count. Peripheral blood eosinophil counts were obtained from standard complete blood counts done at every centre participating in the study. For example, by using standardized methods on a Beckman Coulter LH series analyzer (Beckman Coulter Ltd, Brea, CA, USA), Negewo, N. A. et al, Peripheral blood eosinophils: a surrogate marker for airway eosinophilia in stable COPD, Int J Chron Obstruct Pulmon Dis. 2016; 11: 1495-1504).
(§1) Eosinophils in S.I units (10^9/L) will be converted in cel/µL with the conversion factor 1 × 10^9/L =1000 cel/µL. The primary efficacy analysis on Per Protocol Population was stratified into 2 subgroups based on Eosinophils (cel/ µL) value at visit V1 from Hematology (Low < 300 cel/ µL, and High >=300 cel/ µL). Trough FEV1 on day 16 (+4-day leeway) was summarized by treatment arm and Eosinophils value at visit V1. A mixed model with FEV1 measurements on day 16 (23 h 15 min and 23 h 45 min post-dose), containing treatment arm and Eosinophils strata as fixed effects, site as random effect with baseline FEV1 on visit V5 as a covariate was fitted.
(§2) The present trial is an exploratory study aiming at evaluating the safety, tolerability, and efficacy of a 15-day, once daily administration of 10 mg Compound (I) in subjects with persistent mild-to-moderate atopic asthma. In terms of exploratory efficacy, the primary purpose of this study is to determine whether Compound (I) compared to placebo, improves the FEV1, as well as to provide comparative safety data from this population of asthmatics. Measurements made in this study will also be used to establish whether this treatment improves other variables related to asthma control and lung function.
(§3) A phase II, double-blind, randomized, parallel-group, placebo-controlled multi-center study to investigate the effect of the adenosine A1 receptor antagonist Compound (I) on forced expiratory volume in 1 second (FEV1) in patients with mild-to-moderate persistent atopic asthma.
The study comprises: (i) a minimum of 5-days screening period, during which the subject’s clinical stability and overall eligibility for the study will be assessed; (ii) a weaning phase where a stepwise tapering of the asthma medication will be done upon 7-day periods; (iii) the randomized, parallel-arm treatment period; and (iv) an end-of-study follow-up visit. The asthma medication weaning period comprises three possible visit pathways in order to adjust for each subject’s asthma therapy on study entry. The study comprises a primary analysis population of 58 stable asthmatic subjects managed as described for the objectives, who meet all inclusion criteria and no exclusion criteria and complete a full, valid data set for the primary variable.

[2] = test system: patients with mild-to-moderate persistent atopic asthma; assay: FEV1 AUC30min-23h30min post-dose, phase II study; type: in vivo, human
Source text: (§4) FEV1. Briefly. Spirometry measurements will be performed using spirometry equipment which meets or exceeds the minimal performance recommendations of the ATS/ERS standards (Miller M. R et al, Standardisation of spirometry, Eur Respir J 2005; 26: 319-338). Calibration and quality control should be performed before the site initiation: • a. A 3L syringe will be used to verify spirometer accuracy. • b. The accuracy of the syringe should be certified within the last 12 months and should have an accuracy of ± 15 ml. • c. Before use, the syringe should be maintained at the same temperature as the spirometer to ensure volume stability. • d. For volume-type spirometers, a calibration and leak check must be performed before each testing session according to the manufacturer’s guidelines. A calibration report stored in the site’s source documents is required to confirm the adherence to guidelines. Example of spirometry equipment used in the trial: Jaeger and ERT Spirosphere.
(§5) Secondary objectives include determinations of FEV1 area under the curve (AUC), evaluations on pre- and post- bronchodilator FEV1, and patient reported outcomes (PROs) including Asthma Control Questionnaire-7 (ACQ-7) and Standardized Asthma Quality of Life Questionnaire (AQLQ(S)).

[3] = test system: allergic/atopic asthmatics; assay: Safety / adverse events, phase II study; type: in vivo, human; details: safety population
Procedure: as §2
Of the 107 subjects who were screened, 63 (58.9%) met eligibility criteria and were randomized. Of the 63 patients who were randomized, 63 (100%) completed the study (32 and 31 in the Compound (l) and placebo groups, respectively). There were not adverse events for discontinuation. The safety population included 63 (placebo: n=31 and Compound (l): n=32). Results are based on the per protocol population (placebo: n= 27 and Compound (l): n= 31).
The data highlight the potential of the adenosine A1 receptor antagonist Compound (l) as a promising oral asthma therapy. The safety set included all randomized patients who received at least one dose of any study drug.

[4] = test system: patients with mild-to-moderate persistent atopic asthma; assay: Asthma Control Questionnaire-7 (ACQ-7), phase II study; type: in vivo, human; details: mixed model, days 8 and 15, effect: treatment; p 0.0430
Source text: as §5
Table 7 and FIG. 5. Similar trend was observed when comparing Visit and Study Arm* Visit as covariate.

[5] = test system: patients with mild-to-moderate persistent atopic asthma; assay: Trough FEV1 (spirometry), phase II placebo-controlled study; type: in vivo, human; details: for FEV1 LS means difference vs Placebo, Eosinophils category High, Estimate (SE): eosinophils High at V1, p 0.0164; for FEV1 LS means difference vs Placebo, Eosinophils category Low, Estimate (SE): eosinophils Low at V1, p 0.7778
Procedure: as §1, §4, §2, §3, §5
A mixed model with FEV1 measurements on day 16 (23 h 15 min and 23h 45 min post-dose), containing treatment arm as a fixed effect, site as random effect with baseline FEV1 on visit V5 as a covariate was fitted. The treatment effect was larger for Compound (l) group compared to placebo, increasing the FEV1 on 180 mL (p= 0.0816).
FEV1: forced expiratory volume in 1 second; SD: standard deviation; SE: standard error; min: minimum; max: maximum; LS: least squares; Cl: confidence interval. Trough FEV1 on day 16 (+4-day leeway), defined as the average of the FEV1 measurements taken at 23 h15 min and 23 h45 min post-dose.

[6] = test system: COPD patients; details: baseline sputum eosinophils ≥3%; cited from earlier work
[7] = test system: Brown Norway rats; details: orally administered, antigen induced; cited from earlier work
[8] = test system: chronic obstructive pulmonary disease; details: 16-week trial; cited from earlier work
[9] = test system: TNFalpha; details: rat; cited from earlier work
[10] = test system: COPD patients; details: raised baseline eosinophils; cited from earlier work
[11] = change from baseline, 10 mg, N=31

For `N#Cc1sc(NC(=O)[C@H]2CC[C@@H](C(=O)O)C2)nc1-c1ccccc1` [Compound (I), (1R,3S)-3-((5-cyano-4-phenylthiazol-2-yl)carbamoyl)cyclopentane-1-carboxylic acid], the “Eosinophilic Count on Visit V7 (day 15), Mean” value ([1]; 15 days, per protocol population, N=30, baseline mean 392.9) was 218 cel/ µL, the “Eosinophilic Count on Visit V7 (day 15), Median” value ([1]; 15 days, per protocol population, N=30, baseline median 370.0) was 150.0 cel/ µL and the “Eosinophilic Count, Absolute Change from Baseline, Mean difference vs Placebo (90% Cl)” value ([1]; day 15) was -233.9 (-Inf, -174.6) cel/ µL. The “Eosinophilic Count, Relative Change from Baseline, Mean difference vs Placebo (90% Cl)” value ([1]; day 15, p-value <0.0001) was -68.0 (-Inf, -51.95), the “Eosinophilic Count, Absolute Change from Baseline, Mean” value ([1]; day 15 vs visit V5) was -184.7 cel/ µL and the “Eosinophilic Count, Absolute Change from Baseline, Median” value ([1]; day 15 vs visit V5) was -195.0 cel/ µL. For the same molecule, the “Eosinophilic Count, Relative Change from Baseline, Mean” value ([1]; day 15 vs visit V5) was -46.8, the “Eosinophilic Count, Relative Change from Baseline, Median” value ([1]; day 15 vs visit V5) was -64.9 and the “FEV1 AUC30min-23h30min post-dose through days 15-to-16, Mean” value [2, 11] was 4.9. The “FEV1 AUC30min-23h30min post-dose through days 15-to-16, Median” value [2, 11] was 5.7, the “FEV1 AUC30min-23h30min post-dose through days 15-to-16, Mean difference vs Placebo (90% Cl)” value ([2]; p 0.0435) was 3.6 (0.96) and the serious adverse events ([3]; 10 mg once daily 15 days) was “no serious AEs reported”. For the same molecule, the “severity of most adverse events” value ([3]; both groups) was “mild/moderate”, the “ACQ-7 overall score, Mean difference vs Placebo (90% Cl)” value [4] was -0.28 and the “increase of trough FEV1” value [5] was 110 to 200 mL. For the same molecule, the “Trough FEV1 day 16 (+4-day leeway), LS mean” value ([5]; 10 mg once daily 15 days, N=31, baseline mean 2.7) was 3.1 L, the “Trough FEV1 day 16 (+4-day leeway), LS mean difference vs. Placebo” value ([5]; 10 mg once daily 15 days, p 0.0816) was 0.18 L and the “FEV1 LS means difference vs Placebo, Eosinophils category High, Estimate (SE)” value [5] was 0.38 L. The “FEV1 LS means difference vs Placebo, Eosinophils category High, Estimate (SE)” value ([5]; listed as COMPOUND (I)) was 0.38 (0.15) L, the “FEV1 LS means difference vs Placebo, Eosinophils category Low, Estimate (SE)” value [5] was 0.04 L and the “FEV1 LS means difference vs Placebo, Eosinophils category Low, Estimate (SE)” value ([5]; listed as COMPOUND (I)) was 0.04 (0.15) L. For the same molecule, the “FEV1 LS means differences in study arm vs Placebo, Estimate (SE)” value ([5]; mixed model with eosinophils strata, p 0.0596) was 0.21 (0.11) L, the “FEV1 LS means, Estimate (SE), Eosinophils category High” value ([5]; mixed model, trough FEV1 day 16, eosinophils High at visit V1, per protocol) was 3.06 (0.11) L and the “FEV1 LS means, Estimate (SE), Eosinophils category Low” value ([5]; mixed model, trough FEV1 day 16, eosinophils Low at visit V1, per protocol) was 3.04 (0.12) L. For the same molecule, the “treatment effect, increase of FEV1 compared to placebo” value ([5]; trough FEV1 day 16, mixed model, p= 0.0816) was 180 mL.

In the case of “benralizumab: humanized, afucosylated, monoclonal antibody targeting the IL5-receptor α-chain”, the “improvements in exacerbation rates, SGRQ-C, CRQ-SAS scores and FEV1” value [6] is given as “not statistically significant”.

For `O=C(Nc1c(Cl)cncc1Cl)c1ccc(OC(F)F)c(OCC2CC2)c1` [Roflumilast], the “bronchoalveolar lavage fluid (BALF) eosinophilia” value [7] is listed as “inhibited”, the blood eosinophils [8] is listed as “not in the blood eosinophils” and the “eosinophils in sputum and bronchial biopsy samples” value [8] is listed as “significant reduction”. The “LPS-induced circulating TNFalpha” value [9] was “abrogated”.

B1: mepolizumab: anti-IL-5 monoclonal antibody (antibody, chains of the INN, looked up, V domains shown)
VH: QVTLRESGPALVKPTQTLTLTCTVSGFSLTSYSVHWVRQPPGKGLEWLGVIWASGGTDYNSALMSRLSISKDTSRNQVVLTMTNMDPVDTATYYCARDPPSSLLRLDYWGRGTPVTVSS
VL: DIVMTQSPDSLAVSLGERATINCKSSQSLLNSGNQKNYLAWYQQKPGQPPKLLIYGASTRESGVPDRFSGSGSGTDFTLTISSLQAEDVAVYYCQNVHSFPFTFGGGTKLEIK
In the case of B1, the “sputum and blood eosinophil counts compared with placebo” value [10] is listed as “significantly reduced”.
